The text below walks through data of ChEMBL document CHEMBL1122817, “Synthesis and biological activity of substituted [[3(S)-(acylamino)-2-oxo-1-azetidinyl]oxy]acetic acids. A new class of heteroatom-activated beta-lactam antibiotics” (1985).

Assay [1] deals with Bacillus subtilis. The assay is described as follows: Inhibitory activity against Bacillus Subtilis X12 at 10 mg/mL concentration using Agar disk plate assay. Format: functional.
Assay [2] relates to Escherichia coli. The assay is described as follows: Minimum inhibitory concentration against Escherichia coli N10. Type of assay: functional.
Assay [3] relates to Haemophilus influenzae. Description: Minimum inhibitory concentration against Haemophilus influenza 76. Type of assay: functional.
For another assay, the system named is Proteus vulgaris. Description: Inhibitory activity against Proteus vulgaris X45 at 10 mg/mL concentration using Agar disk plate assay. Type of assay: functional.
For assay [4], the system named is Serratia marcescens. The assay is described as follows: Minimum inhibitory concentration against Serratia marcescens X99. Format: functional.
The test system of assay [5] is Escherichia coli. The assay is described as follows: Inhibitory activity against Escherichia coli X161 at 10 mg/mL concentration using Agar disk plate assay. Type of assay: functional.
For assay [6], the system named is Bacillus subtilis. The assay is described as follows: Inhibitory activity against Bacillus Subtilis X12M at 10 mg/mL concentration using Agar disk plate assay. Format: functional.
In a further assay the test system is Morganella morganii. Description: Minimum inhibitory concentration against Proteus morganii PR15. Type of assay: functional.
For a further assay, the system named is Proteus inconstans. The assay is described as follows: Minimum inhibitory concentration against Proteus inconstans PR33. Type of assay: functional. The settings on record: Providencia alcalifaciens.
The test system of a further assay is Streptococcus pyogenes. The assay is described as follows: Minimum inhibitory concentration against Streptococcus pyogenes C203. Format: functional.
A further assay concerns Streptococcus pneumoniae. The assay is described as follows: Minimum inhibitory concentration against Streptococcus pneumoniae Park I. Type of assay: functional.
Assay [7] relates to Escherichia coli. Description: Inhibitory activity against Escherichia coli X580 at 10 mg/mL concentration using Agar disk plate assay. Type of assay: functional.
Assay [8] concerns Klebsiella pneumoniae. The assay is described as follows: Minimum inhibitory concentration against Klebsiella pneumoniae KAE. Format: functional.
Assay [9] concerns Klebsiella pneumoniae. Description: Minimum inhibitory concentration against Klebsiella pneumoniae X68. Type of assay: functional.
The test system of assay [10] is Klebsiella aerogenes. The assay is described as follows: Minimum inhibitory concentration against Enterobacter aerogenes EB 17. Type of assay: functional.
Assay [11] deals with Escherichia coli. Description: Minimum inhibitory concentration against Escherichia coli TEM. Format: functional.
The test system of assay [12] is Enterobacter cloacae. The assay is described as follows: Minimum inhibitory concentration against Enterobacter cloacae 265A. Format: functional.
The subject of a further assay is Providencia rettgeri. The assay is described as follows: Minimum inhibitory concentration against Proteus rettgeri C24. Format: functional.
Assay [13] relates to Pseudomonas aeruginosa. The assay is described as follows: Minimum inhibitory concentration against Pseudomonas aeruginosa (4 strains). Format: functional.
In another assay the test system is Ralstonia solanacearum. The assay is described as follows: Inhibitory activity against Pseudomonas solanacearum X185 at 10 mg/mL concentration using Agar disk plate assay. Type of assay: functional.
In assay [14] the test system is Pseudomonas aeruginosa. The assay is described as follows: Inhibitory activity against Pseudomonas aeruginosa X48 at 10 mg/mL concentration using Agar disk plate assay. Type of assay: functional.
The next assay relates to Micrococcus luteus. The assay is described as follows: Inhibitory activity against Sarcina lutea X186 at 10 mg/mL concentration using Agar disk plate assay. Format: functional.
Assay [15] deals with Serratia marcescens. Description: Inhibitory activity against Serratia marcescens X99 at 10 mg/mL concentration using Agar disk plate assay. Format: functional.
Assay [16] concerns Serratia marcescens. Description: Minimum inhibitory concentration against Serratia marcescens SE3. Type of assay: functional.
Assay [17] has as its system Klebsiella aerogenes. Description: Minimum inhibitory concentration against Enterobacter aerogenes C32. Type of assay: functional.
The subject of the next assay is Citrobacter freundii. The assay is described as follows: Minimum inhibitory concentration against Citrobacter freundii CF17. Type of assay: functional.
Assay [18] deals with Escherichia coli. The assay is described as follows: Minimum inhibitory concentration against Escherichia coli EC14. Format: functional.
Assay [19] concerns Acinetobacter calcoaceticus. Description: Minimum inhibitory concentration against Acinetobacter calcoaceticus AC12. Format: functional.
Assay [20] concerns Enterobacter cloacae. The assay is described as follows: Minimum inhibitory concentration against Enterobacter cloacae EB5. Type of assay: functional.
For another assay, the system named is Streptococcus. The assay is described as follows: Minimum inhibitory concentration against Streptococcus sp. Group D (2 strains). Format: functional.
The subject of assay [21] is Salmonella typhi. Description: Minimum inhibitory concentration against Salmonella typhi X514. Type of assay: functional, Salmonella enterica subsp. enterica serovar Typhi. The note with it: Salmonella enterica.
Assay [22] concerns Staphylococcus epidermidis. Description: Minimum inhibitory concentration against Staphylococcus epidermidis (2 strains). Format: functional.
In assay [23] the test system is Klebsiella pneumoniae. The assay is described as follows: Minimum inhibitory concentration against Klebsiella pneumoniae X26. Type of assay: functional.
The test system of assay [24] is Escherichia coli. Description: Inhibitory activity against Escherichia coli X161M at 10 mg/mL concentration using Agar disk plate assay. Type of assay: functional.
Assay [25] relates to Staphylococcus aureus. The assay is described as follows: Inhibitory activity against Staphylococcus aureus X1 at 10 mg/mL concentration using Agar disk plate assay. Format: functional.
Assay [26] deals with Staphylococcus aureus. Description: Minimum inhibitory concentration against Staphylococcus aureus (4 strains). Format: functional.
For assay [27], the system named is Geobacillus stearothermophilus. The assay is described as follows: Inhibitory activity against Bacillus Stearothermophilus C451 at 10 mg/mL concentration using Agar disk plate assay. Format: functional.
For assay [28], the system named is Haemophilus influenzae. The assay is described as follows: Minimum inhibitory concentration against Haemophilus influenza C.L. Type of assay: functional.
In assay [29] the test system is Salmonella typhi. Description: Minimum inhibitory concentration against Salmonella typhi 1335. The note with it: Salmonella enterica. Type of assay: functional, Salmonella enterica subsp. enterica serovar Typhi.
Assay [30] deals with Salmonella enterica subsp. enterica serovar Gallinarum. The assay is described as follows: Inhibitory activity against Salmonella gallinarum X142 at 10 mg/mL concentration using Agar disk plate assay. Type of assay: functional.

In the case of `CO/N=C(\C(=O)N[C@@H]1C(=O)N(OCC(=O)[O-])[C@H]1C)c1csc(N)n1.[K+]`, the Zone of inhibition in the assay on Bacillus subtilis [1] was 13 mm; in the assay with Proteus vulgaris, 36 mm; with Escherichia coli [5] it was 35 mm; with Bacillus subtilis [6] it was 19 mm; in the assay on Escherichia coli [7], 56 mm; with Ralstonia solanacearum, 20 mm. For the same molecule, the Zone of inhibition amounted to 15 mm in the assay with Pseudomonas aeruginosa [14]; 22 mm in the assay on Micrococcus luteus; 33 mm in the assay on Serratia marcescens [15]; 44 mm in the assay on Escherichia coli [24]; 19 mm with Staphylococcus aureus [25]; 24 mm in [27]. The Zone of inhibition in assay [30] was determined as 30 mm. Also, the MIC in the assay with Escherichia coli [2] amounted to 0.25 µg/mL; with Haemophilus influenzae [3], 1 µg/mL; in the assay on Serratia marcescens [4], 0.5 µg/mL; against Morganella morganii, 2 µg/mL; against Proteus inconstans, 0.125 µg/mL; in the assay on Streptococcus pyogenes, 16 µg/mL. Also, the MIC with Streptococcus pneumoniae was 32 µg/mL; with Klebsiella pneumoniae [8], 32 µg/mL; against Klebsiella pneumoniae [9] it was 0.25 µg/mL; in the assay with Klebsiella aerogenes [10], 0.25 µg/mL; against Escherichia coli [11] it was 0.5 µg/mL; against Enterobacter cloacae [12], greater than 64 µg/mL. Besides, the MIC in the assay on Providencia rettgeri is 0.125 µg/mL; in the assay with Pseudomonas aeruginosa [13] it was greater than 64 µg/mL; with Serratia marcescens [16] it was 1 µg/mL; in the assay with Klebsiella aerogenes [17] it was 0.25 µg/mL; in the assay with Citrobacter freundii, 2 µg/mL; in the assay with Escherichia coli [18], 0.25 µg/mL. The MIC in assay [19] was greater than 64 µg/mL; against Enterobacter cloacae [20] it was 1 µg/mL; with Streptococcus, greater than 64 µg/mL; in the assay with Salmonella typhi [21], 0.125 µg/mL; in assay [22], greater than 64 µg/mL; with Klebsiella pneumoniae [23], 0.25 µg/mL. The MIC is greater than 64 µg/mL against Staphylococcus aureus [26], 1 µg/mL against Haemophilus influenzae [28] and 0.25 µg/mL with Salmonella typhi [29].

Regarding `C[C@H]1[C@H](NC(=O)Cc2csc(N)n2)C(=O)N1OCC(=O)[O-].[K+]`, the Zone of inhibition in the assay with Bacillus subtilis [1] was 12 mm; in the assay with Proteus vulgaris it was 19 mm; in the assay on Escherichia coli [5], 24 mm; with Bacillus subtilis [6], 21 mm; with Escherichia coli [7] it was 36 mm; with Micrococcus luteus it was 15 mm. The Zone of inhibition was found to be 23 mm with Serratia marcescens [15], 25 mm with Escherichia coli [24], 18 mm with Staphylococcus aureus [25] and 22 mm in assay [30].

Regarding `O=C(O)CON1C[C@H](NC(=O)Cc2ccccc2)C1=O`, the Zone of inhibition is 16 mm in the assay on Bacillus subtilis [1]; 10 mm in the assay with Proteus vulgaris; 20 mm in the assay on Bacillus subtilis [6]; 11 mm in the assay with Escherichia coli [7]; 23 mm in the assay with Micrococcus luteus; 23 mm with Staphylococcus aureus [25].

As for `C[C@H]1[C@H](NC(=O)Cc2ccccc2)C(=O)N1OCC(=O)O`, the Zone of inhibition is 11 mm with Bacillus subtilis [1]; 10 mm in the assay on Proteus vulgaris; 18 mm with Bacillus subtilis [6]; 26 mm in the assay with Escherichia coli [7]; 23 mm in the assay on Micrococcus luteus; 13 mm in the assay with Staphylococcus aureus [25].
